Key:
[1] = system: non-NMDA voltage-gated potassium currents; conditions: in vitro; cited from earlier work
[2] = system: men and women with intractable central neuropathic pain; conditions: cited from earlier work; for pain disability and subjective physical and mental function: 75 mg transdermally over 24 hours for 7 days
[3] = Intranasal versus intravenous ketamine plasma levels; conditions: human, other: intranasal
Procedure: The slow infusion of ketamine produces gradually increasing plasma levels during the infusion period. Dose-wise, the typical ketamine dose for surgical induction is between 1.0-2.0 mg/kg, with additional ketamine used to sustain anesthesia.

NMDA receptor = conditions: cited from earlier work
[4] = in vivo; cited from earlier work
[5] = system: chronic pain patients with breakthrough pain (BTP); conditions: 10-50 mg intranasal; cited from earlier work
[6] = system: women after abdominal gynecological surgery with lidocaine epidural blockade; conditions: cited from earlier work
[7] = system: subjects with major depression; conditions: cited from earlier work
[8] = in vivo; cited from earlier work; remark: listed apart in the source
male Wistar rats = conditions: single dose; cited from earlier work
[9] = system: subjects with DSM-IV treatment-resistant major depression; assay: Randomized, placebo-controlled, double-blind crossover study of a single intravenous ketamine hydrochloride infusion; conditions: for effect size for the drug difference (d), HDRS: ketamine vs placebo
Excerpt: Treatment-resistant major depression is a relatively common occurrence in clinical practice, with up to 50 to 60% of patients not achieving adequate response following antidepressant treatment. […] If the depression has not benefited from at least two adequate trials of medications from different classes in the current episode, clinically significant resistance is present. Several schemes to “stage” the degree of resistance have been proposed. The most widely accepted scheme uses the staging system of Thase and Rush. The stages of resistance are as follows:
Thus, the patient population to be treated by the present invention may be defined according to any one or more of the above schemes. After a 2-week drug-free period, exemplary subjects having treatment-resistant depression were given an intravenous infusion of either ketamine hydrochloride (0.5 mg/kg) or placebo on 2 test days, a week apart. Subjects were rated at baseline and at 40, 80 minutes, 110 minutes, 230 minutes and days 1, 2, 3 and 7 post-infusion. The outcome of the treatment was measured using changes in scores on the primary efficacy to measure the 21-item Hamilton Depression Rating Scale (HDRS).
Men and women, ages 18 to 65 years, who were inpatients with a diagnosis of major depressive disorder recurrent without psychotic features as diagnosed by means of the Structured Clinical Interview for Axis I DSM-IV Disorders—Patient Version 28 were eligible to participate.
All subjects were in good physical health as determined by medical history, physical exam, blood labs, electrocardiogram, chest x-ray, urinalysis and toxicology. Subjects were free of comorbid substance abuse or dependence for at least 3 months and judged clinically not to be a serious suicidal risk.
After a 2 week drug-free period, 18 subjects with DSM-IV major depression were randomized to an intravenous infusion of either ketamine hydrochloride (0.5 mg/kg) or placebo (saline solution) given over 40 minutes with a Baxter infusion pump on 2 test days, a week apart, in a double-blind, crossover study. Seventeen subjects received ketamine and 14 received placebo.
Subjects were rated 60 minutes prior to the infusion and at 40, 80, 110, and 230 minutes as well as 1, 2, 3, and 7 days after the infusion. The 21-item HDRS, Beck Depression Inventory Scale (BDI; [31]), Brief Psychiatric Rating Scale-positive symptoms (BPRS; [32]), Young Mania Rating Scale (YMRS; [33]), and the visual analogue scales score (VAS-depression; [34]). Raters, who trained together to establish reliability, performed patient ratings. […] Subjects were rated by a separate set of raters to help maintain blind to the infusion procedures and resulting side effects. The first set of raters administered the scales on the day of infusion (60 minutes prior to the infusion and 40, 80, 110 post-infusion). From 230 minutes onwards (days 1 through 7), a separate group of raters rated the subjects. Clinical response was defined as a 50% or greater decrease in the HDRS rating scale from baseline and remission as HDRS≦7 [35].
A full factorial, fixed effects linear mixed model with a compound symmetry covariance structure was used to examine the differences between ketamine and placebo over 9 time points from baseline to 7 days. Restricted maximum likelihood estimation was used to estimate missing values. Significant effects were examined with simple effects tests. The 21-item HDRS was the primary outcome measure. Scores from the BDI, BPRS, YMRS, and VAS were secondary outcome measures. Secondary analysis included examination of the individual items of the HDRS. Significance was evaluated at α<0.05, two-tailed.

major depression [10] = conditions: reviews of antidepressant trials; cited from earlier work
[11] = clinical trials; cited from earlier work
major depression [12] = conditions: administered orally; cited from earlier work
[13] = both, human, in vivo, intravenous, 0.5 mg/kg
[14] = one day after infusion, intent to treat, n=17

CNC1(c2ccccc2Cl)CCCCC1=O (racemic) [ketamine, 2-(2-chlorophenyl)-2-(methylamino)-cyclohexanone]
effect on non-NMDA voltage-gated potassium currents [1]: only reduces non-NMDA voltage-gated potassium currents at much higher than reported in patients anesthetized with ketamine
pain disability and subjective physical and mental function [2]: significant improvement in pain disability, and subjective physical and mental function
i.v. dose roughly equivalent to the intranasal dose used for pain (50 mg) [3]: ~0.1 mg/kg
affinity for the NMDA receptor in contrast to memantine (NMDA receptor): higher affinity for the NMDA receptor
affinity for the NMDA receptor versus other sites (NMDA receptor): several fold higher than that for other sites
open channel blocking/unblocking kinetics in contrast to memantine (NMDA receptor): much slower open channel blocking/unblocking kinetics
half-life [4]: approximately 2 hours
breakthrough pain versus placebo [5]: lower BTP
side effects [5]: very few side effects
side effects ([6]; transdermal 25 mg over 24 hrs): no side effects
time to rescue analgesic ([6]; transdermal patch 25 mg/24 hours, placebo 94±54): 230 ± 112 min
patients with 50% or greater decrease in HDRS during the 3-day follow-up period ([7]; Berman et al.): 4 of 8
onset of antidepressant effect post-infusion ([7]; previous study (Berman et al.)): 230 min
antidepressant effect ([7]; single intravenous dose, 7 subjects): rapid and short-lived antidepressant effect
intranasal plasma levels (pain) lower than in intravenous studies in depression [8]: 3-4 fold
time for which induction of behavioral despair is interfered with (male Wistar rats): up to 10 days
onset of improvement in depression post-infusion ([9]; HDRS vs placebo): ≤ 2 h
effect size for the drug difference (d), HDRS ([9]; after 1 week, completers): 0.68
effect size for the drug difference (d), HDRS ([9]; after 24 hours, completers): 1.46
only time at which BPRS positive symptoms were worse on ketamine than placebo [9, 13]: 40 min
only time at which YMRS scores were worse (higher) on ketamine than placebo [9, 13]: 40 min
time beyond which euphoria or derealization/depersonalization did not persist [9, 13]: ≤ 110 min
earliest improvements, depressed mood and guilt (HDRS items) ([9]; completers): 40 min
individual HDRS symptoms with only a significant main effect for drug ([9]; completers): symptoms improved on ketamine for suicide, insomnia, general somatic symptoms, genital symptoms, and hypochondriasis
individual HDRS symptoms with significant time by drug interaction ([9]; completers): Depressed mood, guilt, work and interests, and psychic anxiety improved significantly
time at which motor retardation and gastrointestinal symptoms (HDRS items) were worse ([9]; completers): 40 min
time by which HDRS scores were lower on ketamine ([9]; first phase data only, significant through the seventh day): 80 min
baseline HDRS in the second phase of those who received ketamine first (carryover) ([9]; first-phase baseline 24.9±6.9, one week after infusion): 17.2±6.9
Peak change in BPRS positive symptoms on Ketamine, Group ([9]; group mean ±): +3.1 ± 3.4
% Change in HDRS (day 1) Ketamine, Group ([9]; group mean ±, 0.5 mg/kg i.v. over 40 min, baseline to day 1): −56.2 ± 20.4%
side effects occurring more commonly on ketamine than placebo ([9]; in vivo): perceptual disturbances, confusion, elevations in blood pressure, euphoria, dizziness, and increased libido
time after infusion within which side effects ceased ([9]; majority of side effects): ≤ 80 min
subjects meeting remission criteria (HDRS≦7) [9, 14]: 29%
subjects meeting response criteria (50% or greater decrease in HDRS) [9, 14]: 71%
subjects who maintained response at least 2 weeks ([9]; single infusion 0.5 mg/kg): 2 subjects
subjects who maintained response for at least 1 week ([9]; single infusion 0.5 mg/kg): 35%
time from which VAS depression (mood) improved on ketamine ([9]; through 7 days): 40 min
time from which self-rated BDI improved on ketamine ([9]; through 7 days, completers): 40 min

CN[C@]1(c2ccccc2Cl)CCCCC1=O [S(+)-ketamine]
pain intensity (Visual Analog Scale) ([2]; 50 mg, 75 mg or placebo): no change among groups
pain disability and subjective physical and mental function [2]: significant improvement in pain disability, and subjective physical and mental function
dissociation or psychotic symptoms ([2]; in vivo): no reports of dissociation or psychotic symptoms

CC(NC(C)(C)C)C(=O)c1cccc(Cl)c1 (centres unmarked) [bupropion]
response rates at week 8 (major depression [10]): 62%

Nc1nnc(-c2cccc(Cl)c2Cl)c(N)n1 [lamotrigine]
antidepressant properties [11]: found to have antidepressant properties

CC12CC3CC(C)(C1)CC(N)(C3)C2 [memantine]
antidepressant effects (major depression [12]): did not show the low- to moderate-affinity non-competitive NMDA antagonist memantine, administered orally, to have antidepressants effects

NC1(c2ccccc2Cl)CCCCC1=O (centres unmarked) [norketamine]
half-life [4]: ~5 h

Nc1nc2ccc(OC(F)(F)F)cc2s1 [riluzole]
antidepressant properties [11]: found to have antidepressant properties

COc1ccc(C(CN(C)C)C2(O)CCCCC2)cc1 (centres unmarked) [venlafaxine]
response rates at week 8 (major depression [10]): 65%
